Assay results from PMC8703605, “Enhancement of the Topical Bioavailability and Skin Whitening Effect of Genistein by Using Microemulsions as Drug Delivery Carriers” (Pharmaceuticals, 2021).
Values after ≈ are worked out from the molar mass of the structure shown. Where two headings read alike, the source gives them in different places.

Experiments:
[1] = In vivo pharmacokinetic determination; settings: 20 mg/kg; for Cmax / Tmax / half-life / AUC: male, Sprague-Dawley, rat, in vivo; for AUC: AUC0→ꝏ
Experimental: Rats were divided into two groups, i.e., tranderaml (test) group and oral (control) group, each of three. Rats were anesthetized by 10% chloral hydrate (dosing 0.3 mL/100 g) for intraperitoneal injection. After being anesthetized, hairs on the abdominal skin were removed by an electric shaver. Then, a glass ring with a diameter of 3 cm was fixed on the skin by a quick-drying glue. The applied dose of 20 mg/kg of the tested microemulsion formulation was placed inside the glass ring. […] Blood samples of approximately 0.6 mL were collected from the jugular vein and placed into a 1.5-mL Eppendorf at predetermined time intervals after transdermal administration. Then, the blood sample was centrifuged at 12,000 rpm for 10 min. The plasma samples were stored at −20 °C until analysis. Three to six replicates were conducted for each formulation.
Sample preparation [49, 53, 54]: A 100 μL of plasma samples was incubated with 100 μL of the sulfatase (approximately 200 unit) at 37 ± 0.5 °C for 5 h. Then, 100 µL Nicotine 4 µg/mL was used as internal standard added to the sample, then vortexed for 10 s. A total of 1 mL tert-methyl butyl ether was added for extract solution and vortexed for 10 min and then centrifuged at 10,000 rpm for 10 min. The supernatant of 800 µL was transferred to Eppendorf and evaporated to dryness in the vacuum oven (EYELA CVE-3000, Tokyo, Japan) for 1 h and 40 °C. The residue was reconstituted with 100 µL methanol and analyzed.
The pharmacokinetic analysis includes the following quantities: area under the curve (AUC), maximum plasma concentration (Cmax), the time needed to reach the maximum plasma concentration (Tmax), and the half-life (t1/2) of the drug. All values are presented as the mean ± standard deviation (SD). All data were processed using Phoenix WinNonlin 6.3 (Pharsight Corporation, Sunnyvale, CA, USA) to construct pharmacokinetic profiles. Data were analyzed by using the ANOVA test to evaluate the differences between the groups, and values of p < 0.05 indicated significant differences compared with control.

[2] = system: mice; parameters: method as in PMID 16198038, PMID 9748575, PMID 2548712; settings: cited from earlier work
[3] = system: Salmonella typhimurium; parameters: method as in PMID 16198038, PMID 9748575, PMID 2548712; settings: cited from earlier work
[4] = system: rats; parameters: method as in PMID 16198038, PMID 9748575, PMID 2548712; settings: cited from earlier work
[5] = parameters: method as in PMID 20190449; settings: at 25 °C; cited from earlier work
[6] = Solubility of genistein in different vehicles (shake flask, HPLC); format: physicochemical
Experimental: An excess amount of genistein was added to 1 mL each of the vehicles, including receptor buffer and oils, into a 1.5-mL Eppendorf, which was placed on a reciproacting shaker (Shaking Bath, Model B601D, Firstek Co., Ltd., Taipei, Taiwan) and shaken for more than 24 h at room temperature. Then each smaple was centrifuged at 12,000 rpm for 10 min. The drug concentration in supernatant was analyzed by HPLC.
Hitachi HPLC system (Hitachi, Tokyo, Japan), including model L-7100 pump, L-5210 autosampler, model L-4000H detector, and Merck Lichrocart® 100 RP 18 column (250 mm × 4 mm, 5 μm), was used. The mobile phase was composed of methanol and 0.05% phosphoric acid aqueous solution at ratios of 80/20 v/v. The flow rate and detection wavelength were at 1.0 mL/min and 230 nm, respectively. Diazepam solution was used as internal standard. The analytical method was successfully validated for linearity (1.0~100.0 μg/mL), with a determination coefficient (R^2) of 0.9997, precision of coefficient of variation (CV, %) of 4.16%, and accuracy of relative error (RE, %) of 5.71%. The limit of quantitation was 0.5 µg/mL.

Structure (SMILES): O=c1c(-c2ccc(O)cc2)coc2cc(O)cc(O)c12 [genistein, 4′,5,7-trihydroxyisoflavone]
- Cmax ([1]; po): 3120 ± 1800 ng/mL
- Tmax ([1]; po): 3.67 ± 0.43 h
- half-life ([1]; po): 6.52 ± 1.24 h
- AUC ([1]; po, rats, aqueous suspension, n = 3): 33900 ± 4760 ng·h/mL
- Cmax ([1]; topical or ocular): 9120 ± 570 ng/mL
- Tmax ([1]; topical or ocular): 7.26 ± 1.11 h
- half-life ([1]; topical or ocular): 19.3 ± 5.05 h
- AUC ([1]; topical or ocular, rats, transdermal, microemulsion, n = 3): 329000 ± 50000 ng·h/mL
- AUC0→ꝏ ([1]; rats, oral, aqueous suspension, n = 3): 33910 ± 4760 ng·h/mL
- Mutagenicity and teratogenicity [2]: not mutagenic or teratogenic
- Mutagenicity [3]: not mutagenic
- Mutagenicity and teratogenicity [4]: not mutagenic or teratogenic
- solubility in water [5]: 5.3 µM (≈ 1.43 µg/mL)
- Increase of solubility in co-surfactant vs distilled water ([6]; co-surfactant): > 8415 fold
- solubility ([6]; in Distilled water, room temperature, read-out: Solubility): ~0.01 mg/mL (≈ 0.037 mM)
- solubility ([6]; microemulsion with PEG 400 concentration 0, read-out: Solubility in microemulsion): 11.1 mg/mL (≈ 41 mM)
- solubility ([6]; microemulsion with PEG 400 concentration 20%, read-out: Solubility in microemulsion): 32 mg/mL (≈ 118 mM)
- Increase of solubility in oil vs distilled water ([6]; oil): more than 13 fold
- solubility ([6]; oil or lipid, thermodynamic from solid, in Capryol 90, room temperature, read-out: Solubility): 5.2 ± 0.23 mg/mL (≈ 19.2 mM)
- solubility ([6]; oil or lipid, thermodynamic from solid, in Oleic acid, room temperature, read-out: Solubility): 0.13 ± 0.02 mg/mL (≈ 0.481 mM)
- solubility ([6]; oil or lipid, thermodynamic from solid, in Peceol, room temperature, read-out: Solubility): 0.36 ± 0.01 mg/mL (≈ 1.33 mM)
- solubility ([6]; organic solvent or mixture, thermodynamic from solid, in PEG 400, room temperature, read-out: Solubility): 84.2 ± 5.61 mg/mL (≈ 311 mM)
- solubility ([6]; organic solvent or mixture, thermodynamic from solid, in Transcutol HP, room temperature, read-out: Solubility): 94.7 ± 3.92 mg/mL (≈ 350 mM)
- Increase of solubility in surfactant vs distilled water ([6]; surfactant): > 1903 fold
- solubility ([6]; thermodynamic from solid, in Brij 30, room temperature, read-out: Solubility): 27.7 ± 1.8 mg/mL (≈ 103 mM)
- solubility ([6]; thermodynamic from solid, in Cremophor EL, room temperature, read-out: Solubility): 19.4 ± 6.15 mg/mL (≈ 71.9 mM)
- solubility ([6]; thermodynamic from solid, in Labrasol, room temperature, read-out: Solubility): 55.5 ± 3.56 mg/mL (≈ 205 mM)
- solubility ([6]; thermodynamic from solid, in Tween 80, room temperature, read-out: Solubility): 19 ± 1.37 mg/mL (≈ 70.4 mM)
- solubility ([6]; water, thermodynamic from solid, in Distilled water, room temperature, read-out: Solubility): 0.01 mg/mL (≈ 0.037 mM)
